Here are results for one substance from PMC6925343 (ACS chemical biology, 2019).

The subject of experiment [1] is RANBP3 Ser58/Ser126 phosphorylation. Briefly: RANBP3 Ser58/Ser126 phosphorylation in CSA treated HeLa cells, Western blot. The format is cell-based. Conditions: CSA 45 min, anti-pSer58/pSer126-RANBP3 antibody. For orientation: A western blot detects proteins with antibodies after separation by electrophoresis.
For experiment [2], the system named is SMAD2 localization in HeLa cells. Conditions: CSA 45 min, n = 90 cells, three independent replicates.

In the case of Cyclosporine A [CSA], the “increase of Ser58/Ser126 phosphorylation of RANBP3” value in experiment [1] is reported as “approximately 2 fold”. The “total SMAD2 levels” value in experiment [2] is reported as “not changed”.
